Where two headings read alike, the source gives them in different places.
System: human prostate cancer cell line LNCaP
Test: Antiproliferation test with the human prostate cancer cell line (LNCaP)
Format: cell-based
Conditions: LNCaP cells; for IC50: growth stimulated by 0.1 nM R1881, 7 days, MTT readout, read-out: Antiandrogeneity IC50 in the presence of 0.1 nM of R1881; for Androgeneity at 1 μM: test compound at 1 μM, growth stimulation by 0.1 nM of R1881 was set = 100%
Text: Antiproliferation Test with the Human Prostate Cancer Cell Line (LNCaP)
The human prostate cancer cell line LNCaP [American Type Culture Collection (ATCC)=Accession No.: CRL 1740; Horoszewicz et al., Cancer Research, 43 pp. 1809-18, 1983] was isolated from the lymph node metastasis of a prostate cancer patient. It expresses the androgen receptor and can be stimulated in growth by androgens. The androgen-mediated growth stimulation can be blocked by simultaneous administration of antiandrogens. The antiandrogenic active strength (IC50) of test compounds can be determined by dose-action correlations.
The cells are cultivated in RPMI 1640 medium with penicillin (10,000 units/l), streptomycin (100 mg/l), glutamine ([…]), 10% fetal calf serum and 0.1 nM of the synthetic androgen R1881 (Metribolone, Roussel).
Day 1: Sowing of the cells in a density of 5,000-6,000/100 μl/hole in 96-hole plates. Adding test compound (100 μl/hole doubly concentrated) to the culture medium with 0.2 nM of R1881 (yields 0.1 nM final concentration). Incubation of the cells for 72 or 96 hours at 37° C., 5% CO2, 90% relative atmospheric humidity. In the culture medium, the fetal calf serum is replaced by 5% activated carbon-treated (steroid-free) serum.
Day 3 or 4: Medium change: In each case in 50% of the medium, inclusive test compounds are replaced by fresh medium. Incubation of the cells for 96 or 72 hours at 37° C., 5% CO2, 90% relative atmospheric humity.
Day 7: Adding 25 μl of MTT solution per hole {MTT=(3[4,5-dimethylthiazol-2-yl]-2,5-diphenaltetrazolium bromide (thiazolyl blue}. Incubation is for 3 hours at 37° C., 5% CO2, 90% relative atmospheric humidity. After the removal of the supernatant, addition of 100 μl of DMSO per hole. Measurement of the optical density at […].
The antiandrogens OH-flutamide and casodex that are found in clinical practice were tested, as well as the compound EM-101 (N-butyl, N-methyl-11-(17′β-hydroxy-4′-androsten-3′-on-7′α-yl)undecanamide of WO 91/00732.

| Compound | IC50 | Androgeneity at 1 μM | IC50 (Homo sapiens, 168 h) |
| --- | --- | --- | --- |
| CC12CCC(=O)C=C1CC(CCCCCCCCCC[S+]([O-])c1ccccc1)C1C2CCC2(C)C1CCC2(O)C(F)(F)C(F)(F)F (stereo not drawn) [Example 20, 17β-Hydroxy-17α-(1,1,2,2,2-pentafluoroethyl)-7α-[10-(phenylsulfinyl)decyl]androst-4-en-3-one] | 200 nM | 0% |  |
| CC(O)(CS(=O)(=O)c1ccc(F)cc1)C(=O)Nc1ccc(C#N)c(C(F)(F)F)c1 (stereo not shown) [Casodex] |  | 7% | 440 nM |
| CCCCN(C)C(=O)CCCCCCCCCC[C@@H]1CC2=CC(=O)CC[C@]2(C)[C@H]2CC[C@]3(C)[C@@H](O)CC[C@H]3[C@H]12 [EM-101, N-butyl, N-methyl-11-(17′β-hydroxy-4′-androsten-3′-on-7′α-yl)undecanamide] | 4440 nM | 0% |  |
| CC(C)(O)C(=O)Nc1ccc([N+](=O)[O-])c(C(F)(F)F)c1 [OH-flutamide] | > 10000 nM | 144% |  |
| C[C@]12CCC(=O)C=C1C[C@@H](CCCCCCCCCO)[C@@H]1[C@@H]2CC[C@@]2(C)[C@H]1CC[C@]2(C)O [Example 53, 17β-Hydroxy-7α-(9-hydroxynonyl)-17α-methylandrost-4-en-3-one] |  | 0% | 40 nM |
